Assay results from PubChem BioAssay AID248 (DTP/NCI, 2004).
Values joined by “and” are separate entries in the source; they are usually repeats but may differ in a detail not shown here. Identical values can stand only once. Inconclusive results and toxic doses are left out. Cut-off read from the data, not from the text of the source: active = T/C of 150% or more; inactive = T/C below 125%.

Test system: L1210 leukemia ip in BDF1 mice, survival T/C
Experiment: NCI In Vivo Anticancer Drug Screen. Data for tumor model L1210 Leukemia (intraperitoneal) in B6D2F1 (BDF1) mice
Conditions: endpoint: mean survival time, higher = longer survival
How it was run: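 Antitumor effect is assessed in tumor-bearing animals. Survival in the compound arm is compared with a vehicle-dosed control arm and expressed as their quotient.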

[1] = dose: 100.0 mg/kg/injection, schedule: Q04DX003 (ip), vehicle: saline
[2] = dose: 200.0 mg/kg/injection, schedule: Q04DX003 (ip), vehicle: saline
[3] = dose: 400.0 mg/kg/injection, schedule: Q04DX003 (ip), vehicle: saline
[4] = dose: 100.0 mg/kg/injection, schedule: Q04DX003 (ip), vehicle: saline with Tween-80
[5] = dose: 200.0 mg/kg/injection, schedule: Q04DX003 (ip), vehicle: saline with Tween-80
[6] = dose: 400.0 mg/kg/injection, schedule: Q04DX003 (ip), vehicle: saline with Tween-80
[7] = dose: 100.0 mg/kg/injection, schedule: Q01DX001 (ip), vehicle: carboxymethylcellulose (CMC)
[8] = dose: 200.0 mg/kg/injection, schedule: Q01DX001 (ip), vehicle: carboxymethylcellulose (CMC)
[9] = dose: 400.0 mg/kg/injection, schedule: Q01DX001 (ip), vehicle: carboxymethylcellulose (CMC)
[10] = dose: 100.0 mg/kg/injection, schedule: Q04DX003 (ip), vehicle: Klucel (hydroxypropylcellulose) (HPC)
[11] = dose: 200.0 mg/kg/injection, schedule: Q04DX003 (ip), vehicle: Klucel (hydroxypropylcellulose) (HPC)
[12] = dose: 400.0 mg/kg/injection, schedule: Q04DX003 (ip), vehicle: Klucel (hydroxypropylcellulose) (HPC)

Measured: T/C

CCCCCCCCCCCCCCCC[N+](C)(C)Cc1ccccc1
inactive: dose: 0.5 mg/kg/injection, schedule: Q04DX002 (ip), vehicle: Klucel (hydroxypropylcellulose) (HPC) 98 % of control | dose: 1.0 mg/kg/injection, schedule: Q04DX002 (ip), vehicle: Klucel (hydroxypropylcellulose) (HPC) 103 % of control | dose: 2.0 mg/kg/injection, schedule: Q04DX002 (ip), vehicle: Klucel (hydroxypropylcellulose) (HPC) 103 % of control

O=C(O)C(CSSCC(NS(=O)(=O)Cc1ccccc1)C(=O)O)NS(=O)(=O)Cc1ccccc1 (centres undefined)
inactive: dose: 100.0 mg/kg/injection, schedule: Q04DX003 (ip), vehicle: other 97 % of control | dose: 200.0 mg/kg/injection, schedule: Q04DX003 (ip), vehicle: other 92 % of control | dose: 400.0 mg/kg/injection, schedule: Q04DX003 (ip), vehicle: other 93 % of control

CCCC(O)C(C)[N+](=O)[O-] (centres undefined)
inactive: [1] 96 % of control | [2] 102 % of control | [3] 96 % of control

O=c1ccc(=O)n(-c2ccc(Cl)cc2)[nH]1
inactive: dose: 50.0 mg/kg/injection, schedule: Q04DX003 (ip), vehicle: saline with Tween-80 103 % of control | [4] 104 % of control | [5] 98 % of control

Oc1ccccc1O.[O-]c1ccccc1[O-].[O-]c1ccccc1[O-].[O]=[V+2]
inactive: dose: 4.0 mg/kg/injection, schedule: Q01DX015 (ip), vehicle: saline 100 % of control | dose: 8.0 mg/kg/injection, schedule: Q01DX015 (ip), vehicle: saline 94 % of control | dose: 12.5 mg/kg/injection, schedule: Q04DX003 (ip), vehicle: saline 111 % of control | dose: 16.0 mg/kg/injection, schedule: Q01DX015 (ip), vehicle: saline 96 % of control | dose: 18.75 mg/kg/injection, schedule: Q01DX009 (ip), vehicle: saline 90 % of control | dose: 25.0 mg/kg/injection, schedule: Q04DX003 (ip), vehicle: saline 102 % of control | dose: 32.0 mg/kg/injection, schedule: Q01DX015 (ip), vehicle: saline 102 % of control | dose: 37.5 mg/kg/injection, schedule: Q01DX009 (ip), vehicle: saline 101 % of control | dose: 50.0 mg/kg/injection, schedule: Q04DX003 (ip), vehicle: saline 100 % of control | dose: 75.0 mg/kg/injection, schedule: Q04DX003 (ip), vehicle: saline 97 % of control

N=c1ccccn1C(=O)C1=Cc2ccccc2OC1
inactive: dose: 100.0 mg/kg/injection, schedule: Q01DX001 (ip), vehicle: saline with Tween-80 103 % of control | dose: 200.0 mg/kg/injection, schedule: Q01DX001 (ip), vehicle: saline with Tween-80 100 % of control | dose: 400.0 mg/kg/injection, schedule: Q01DX001 (ip), vehicle: saline with Tween-80 96 % of control

Cc1no[n+]([O-])c1[N+](=O)[O-]
inactive: dose: 5.0 mg/kg/injection, schedule: Q01DX009 (ip), vehicle: saline 100 % of control | dose: 10.0 mg/kg/injection, schedule: Q01DX009 (ip), vehicle: saline 101 % of control | dose: 20.0 mg/kg/injection, schedule: Q01DX009 (ip), vehicle: saline 102 % of control

O=c1c(Cl)c(C(Cl)(Cl)Cl)[nH]c2ccc([N+](=O)[O-])cc12
inactive: dose: 25.0 mg/kg/injection, schedule: Q01DX001 (ip), vehicle: saline with Tween-80 101 % of control | dose: 50.0 mg/kg/injection, schedule: Q01DX001 (ip), vehicle: saline with Tween-80 101 % of control

CC(=O)OC(C)(C)/C=C/C(=O)[C@](C)(O)[C@H]1[C@H](O)C[C@@]2(C)[C@@H]3CC=C4[C@@H](C=C(O)C(=O)C4(C)C)[C@]3(C)C(=O)C[C@]12C
inactive: dose: 0.4 mg/kg/injection, schedule: Q01DX Z (ip), vehicle: carboxymethylcellulose (CMC) 94 % of control | dose: 0.8 mg/kg/injection, schedule: Q01DX Z (ip), vehicle: carboxymethylcellulose (CMC) 100 % of control | dose: 1.6 mg/kg/injection, schedule: Q01DX Z (ip), vehicle: carboxymethylcellulose (CMC) 105 % of control | dose: 3.2 mg/kg/injection, schedule: Q01DX Z (ip), vehicle: carboxymethylcellulose (CMC) 100 % of control

Clc1ccc(N/N=C(\Oc2ccccc2)c2ccccc2)cc1
inactive: [4] 104 % of control | [6] 98 % of control

CC(C)c1nc(CO)c(CO)n1Cc1ccccc1
inactive: [7] 106 % of control | dose: 100.0 mg/kg/injection, schedule: Q01DX009 (ip), vehicle: carboxymethylcellulose (CMC) 93 % of control and 109 % of control | dose: 100.0 mg/kg/injection, schedule: Q04DX002 (ip), vehicle: Klucel (hydroxypropylcellulose) (HPC) 112 % of control | dose: 100.0 mg/kg/injection, schedule: Q04DX002 (ip), vehicle: carboxymethylcellulose (CMC) 93 % of control and 111 % of control | [8] 108 % of control | dose: 200.0 mg/kg/injection, schedule: Q01DX009 (ip), vehicle: carboxymethylcellulose (CMC) 106 % of control and 91 % of control | dose: 200.0 mg/kg/injection, schedule: Q04DX002 (ip), vehicle: Klucel (hydroxypropylcellulose) (HPC) 102 % of control | dose: 200.0 mg/kg/injection, schedule: Q04DX002 (ip), vehicle: carboxymethylcellulose (CMC) 105 % of control and 88 % of control | [9] 108 % of control | dose: 400.0 mg/kg/injection, schedule: Q01DX009 (ip), vehicle: carboxymethylcellulose (CMC) 106 % of control and 91 % of control | dose: 400.0 mg/kg/injection, schedule: Q04DX002 (ip), vehicle: Klucel (hydroxypropylcellulose) (HPC) 102 % of control | dose: 400.0 mg/kg/injection, schedule: Q04DX002 (ip), vehicle: carboxymethylcellulose (CMC) 97 % of control and 90 % of control

CCOC(=O)CSc1c([N+](=O)[O-])c(C)nn1C
inactive: dose: 25.0 mg/kg/injection, schedule: Q01DX009 (ip), vehicle: water 101 % of control | dose: 50.0 mg/kg/injection, schedule: Q01DX009 (ip), vehicle: water 97 % of control | dose: 100.0 mg/kg/injection, schedule: Q01DX009 (ip), vehicle: water 105 % of control | dose: 200.0 mg/kg/injection, schedule: Q01DX009 (ip), vehicle: water 97 % of control | dose: 400.0 mg/kg/injection, schedule: Q01DX009 (ip), vehicle: water 92 % of control

N=C(N)Cc1ccc(CCc2ccc(CC(=N)N)cc2)cc1
inactive: dose: 12.5 mg/kg/injection, schedule: Q01DX Z (oral), vehicle: saline 97 % of control | dose: 25.0 mg/kg/injection, schedule: Q01DX Z (oral), vehicle: saline 100 % of control | dose: 50.0 mg/kg/injection, schedule: Q01DX Z (oral), vehicle: saline 97 % of control | dose: 100.0 mg/kg/injection, schedule: Q01DX Z (oral), vehicle: saline 100 % of control

C1CCC(C2CC2)CC1
inactive: dose: 50.0 mg/kg/injection, schedule: Q01DX009 (ip), vehicle: saline 97 % of control | dose: 100.0 mg/kg/injection, schedule: Q01DX009 (ip), vehicle: saline 94 % of control | dose: 200.0 mg/kg/injection, schedule: Q01DX009 (ip), vehicle: saline 94 % of control

c1ccc(C2=C(c3ccccc3)SC(c3ccccc3)=C(c3ccccc3)S2)cc1
inactive: [1] 102 % of control | [2] 98 % of control | [3] 104 % of control

O=C(N/N=C\c1cc(Cl)ccc1[N+](=O)[O-])c1ccccc1
inactive: [10] 97 % of control | [11] 97 % of control | [12] 103 % of control

CC1(C(=O)N2c3ccccc3C=CC2C#N)CC2C=CC1C2 (centres undefined)
inactive: [10] 106 % of control | [11] 110 % of control | [12] 123 % of control

CCNC(=S)N/N=C(/c1ccc(OC)cc1)P(=O)(OCC)OCC
inactive: [10] 104 % of control | [11] 100 % of control | [12] 89 % of control

COc1ccc(OC)c(NC(=O)c2cc3ccccc3cc2OC(=O)Nc2cc(Cl)ccc2OC)c1
inactive: dose: 100.0 mg/kg/injection, schedule: Q01DX009 (ip), vehicle: saline with Tween-80 94 % of control | dose: 100.0 mg/kg/injection, schedule: Q04DX002 (ip), vehicle: saline with Tween-80 103 % of control and 112 % of control | [4] 103 % of control | dose: 200.0 mg/kg/injection, schedule: Q01DX009 (ip), vehicle: saline with Tween-80 98 % of control and 89 % of control | dose: 200.0 mg/kg/injection, schedule: Q04DX002 (ip), vehicle: saline with Tween-80 97 % of control and 87 % of control | [5] 102 % of control | dose: 400.0 mg/kg/injection, schedule: Q01DX009 (ip), vehicle: saline with Tween-80 102 % of control and 89 % of control | dose: 400.0 mg/kg/injection, schedule: Q04DX002 (ip), vehicle: saline with Tween-80 101 % of control and 91 % of control | [6] 97 % of control

CN1CCC2(CC1)C(C#N)C(=O)NC(=O)C2C#N (centres undefined)
inactive: [7] 92 % of control | [8] 101 % of control | [9] 95 % of control
